From US11873298B2, “Compounds and uses thereof” (JANSSEN PHARMACEUTICA NV, priority 2017, dated 2024)

Experiments:
SCD1 = biological target: T1, SCD1 (Homo sapiens, UniProt O00767); assay: Growth inhibition of humanized yeast strain expressing SCD1 as sole desaturase; format: cell-based
T1 construct: host or cells: S. cerevisiae ole1Δ strain (W303 pdr1Δ pdr3Δ background), plasmid pRS316 with TDH3 promoter and CYC1 terminator
T1 sequence (O00767 1-359): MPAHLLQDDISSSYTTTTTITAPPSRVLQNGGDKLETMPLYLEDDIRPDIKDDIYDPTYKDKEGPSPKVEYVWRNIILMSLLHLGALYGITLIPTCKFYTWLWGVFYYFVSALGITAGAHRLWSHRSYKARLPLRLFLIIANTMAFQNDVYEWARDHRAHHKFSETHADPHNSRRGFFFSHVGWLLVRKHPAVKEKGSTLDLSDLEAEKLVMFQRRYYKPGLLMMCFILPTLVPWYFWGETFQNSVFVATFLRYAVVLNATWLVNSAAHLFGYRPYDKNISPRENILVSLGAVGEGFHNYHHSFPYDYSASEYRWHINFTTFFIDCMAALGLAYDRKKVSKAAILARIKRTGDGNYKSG
Outline: (§1)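 Yeast ole1Δ strain (W303 pdr1Δ pdr3Δ background) carrying plasmid-borne Ole1, SCD1 or SCD5 as sole desaturase was grown in uracil-lacking media, pre-cultured in raffinose for 6 h, then seeded in galactose medium with compound in DMSO. Growth was read as OD600 after 30° C. incubation: 24 h for Ole1, 40 h for SCD1/SCD5.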

SCD5 = biological target: T2, SCD5 (Homo sapiens, UniProt Q86SK9); assay: Growth inhibition of humanized yeast strain expressing SCD5 as sole desaturase; format: cell-based
T2 construct: host or cells: S. cerevisiae ole1Δ strain (W303 pdr1Δ pdr3Δ background), plasmid pRS316 with TDH3 promoter and CYC1 terminator
T2 sequence (Q86SK9 1-330): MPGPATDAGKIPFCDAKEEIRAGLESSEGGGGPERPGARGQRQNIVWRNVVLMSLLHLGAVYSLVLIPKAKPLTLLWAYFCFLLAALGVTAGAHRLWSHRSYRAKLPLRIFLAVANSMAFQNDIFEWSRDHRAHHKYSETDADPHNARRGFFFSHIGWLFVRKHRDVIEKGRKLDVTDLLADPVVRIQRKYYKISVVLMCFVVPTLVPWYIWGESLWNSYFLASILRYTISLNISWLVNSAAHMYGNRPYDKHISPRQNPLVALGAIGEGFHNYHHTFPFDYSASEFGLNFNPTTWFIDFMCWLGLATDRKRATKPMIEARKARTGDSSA
Outline: as §1

[1] = growth inhibition of humanized yeast strain expressing human SCD1
[2] = growth inhibition of humanized yeast strain expressing human SCD5
[3] = humanized yeast strain expressing SCD1
[4] = humanized yeast strain expressing SCD5

Compound | IC50 (SCD1; humanized yeast strain, 40 h) | IC50 (SCD5; humanized yeast strain, 40 h) | also measured
COC(=O)N1CCC(c2noc(-c3ccc4ccn(C5COC5)c4c3)n2)CC1 [Compound 1036] | > 45 µM | 0.01 µM | 
COC(=O)N1CCC(c2cc(-c3ccc4cnn(C5COC5)c4c3)on2)CC1 [Compound 1027] | > 45 µM | 3.16 µM | 
CC(C)(C)OC(=O)N1CCC(c2noc(-c3ccn(C4COC4)c(=O)c3)n2)CC1 [Compound 1121] | > 45 µM | 15.5 µM | 
CC(C)C(=O)N1CCC(c2noc(-c3ccc4cnn(C5COC5)c4c3F)n2)CC1 [Compound 1112] | > 45 µM | 0.193 µM | 
CC(C)n1ncc2ccc(-c3noc(C4CCN(C(=O)C56CC(C5)C6)CC4)n3)cc21 [Compound 705] |  |  | IC50 (SCD1; [1]): 14.4 µM; IC50 (SCD5; [2]): 0.174 µM
CC(C)(C)OC(=O)N1C[C@@H]2[C@H](C1)[C@H]2C(=O)NCc1ccc(C#N)cc1 [Compound 770] | > 45 µM | > 45 µM | 
COC(=O)N1CCC(c2noc(-c3ccc(N4CCOCC4)cc3)n2)CC1 [Compound 1163] | > 45 µM | > 45 µM | 
O=C(N1CC(c2noc(-c3ccc4cnn(C5COC5)c4c3)n2)C1)C(F)(F)F [Compound 954] | > 45 µM | 2.86 µM | 
CC(C)C(=O)N1CCC(c2noc(-c3ccccc3N3CCOCC3)n2)CC1 [Compound 1167] | > 45 µM | > 45 µM | 
CC(C)n1ncc2c1CN(c1noc(C3CCN(C(=O)OC(C)(C)C)CC3)n1)CC2 [Compound 827] | > 45 µM | > 45 µM | 
CC(C)(C)OC(=O)N1CCC(c2noc(-c3ccc4cnn([C@@H]5CCOC5)c4c3)n2)CC1 [Compound 1092] | 32.3 µM | 0.01 µM | 
CC(C)c1noc2ccc(-c3noc(C4CCNCC4)n3)cc12 [Compound 723] |  |  | IC50 (SCD1; [1]): > 45 µM; IC50 (SCD5; [2]): > 45 µM
CC(C)n1ncc2ccc(-c3noc(C4CCN(C(=O)CNC(=O)c5ccccc5)CC4(F)F)n3)cc21 (stereo not shown) [Compound 679] |  |  | IC50 (SCD1; [1]): > 45 µM; IC50 (SCD5; [2]): > 45 µM
CC1(OC(=O)N2CC(c3nc(-c4ccc5cnn(C6COC6)c5c4)no3)C2)CC1 [Compound 724] |  |  | IC50 (SCD1; [1]): > 45 µM; IC50 (SCD5; [2]): 1.25 µM
CC1(CC(=O)N2CCC(c3noc(-c4ccc5cnn(C6COC6)c5c4)n3)CC2)CC1 [Compound 886] | 10.6 µM | 0.06 µM | 
CC(C)(C)OC(=O)N1CCC(c2nc(-c3ccc4c(C#N)ncn4c3)no2)CC1 [Compound 899] | > 45 µM | 26 µM | 
c1cc2cnn(C3COC3)c2cc1-c1nc(N2CCNCC2)no1 [Compound 751] | > 45 µM | > 45 µM | 
CC(=O)N1CC(n2ncc3ccc(-c4noc(N5CCN(C(=O)OC(C)(C)C)CC5)n4)cc32)C1 [Compound 897] | > 45 µM | 0.06 µM | 
CCC(=O)N1CCC(c2noc(-c3ccc4cnn([C@@H]5CCOC5)c4c3)n2)CC1 [Compound 1050] | > 45 µM | 0.02 µM | 

Compound | IC50 (SCD1; humanized yeast strain, 40 h) | IC50 (SCD5; humanized yeast strain, 40 h) | also measured
CC1(OC(=O)N2CCC(c3nnc(-c4ccc5cnn(C6COC6)c5c4)o3)CC2)CC1 [Compound 980] | > 45 µM | 0.877 µM | 
CCC(=O)N1CCC(c2noc(-c3ccc4cnn([C@H]5CCOC5)c4c3)n2)CC1 [Compound 1049] | > 45 µM | 0.012 µM | 
CC(=O)N1CC(n2cc3ccc(-c4noc(N5CCN(C(=O)OC(C)(C)C)CC5)n4)cc3n2)C1 [Compound 898] | > 45 µM | 0.07 µM | 
CC(C)(C)OC(=O)N1CCC(c2cc(-c3cc4c(cn3)cnn4C3COC3)no2)CC1 [Compound 1144] | 1.78 µM | 0.01 µM | 
COC1CCC(S(=O)(=O)N2CCC(c3nc(-c4ccc5cnn(C(C)C)c5c4)no3)CC2)CC1 (stereo not shown) [Compound 517] |  |  | IC50 (SCD1; [3]): > 45 µM; IC50 (SCD5; [4]): > 45 µM
COC(=O)N1CCCN(c2noc(-c3cc(F)c4cnn(C5COC5)c4c3)n2)CC1 [Compound 963] | > 45 µM | 0.16 µM | 
CC(C)n1ncc2ccc(-c3noc(C4CCN(C(=O)C56CC(F)(C5)C6)CC4)n3)cc21 [Compound 756] | > 45 µM | 4.36 µM | 
O=C(N1CCC(c2noc(-c3ccnc(NC4COC4)c3)n2)CC1)C1(F)CC1 [Compound 1116] | > 45 µM | 1.41 µM | 
CC(C)C(=O)N1CCC(c2noc(-c3ccnc(Cl)c3)n2)CC1 [Compound 1129] | > 45 µM | > 45 µM | 
COC(=O)N1CCC(c2nc(-c3ccc4onc(C(C)C)c4c3)no2)CC1 [Compound 646] |  |  | IC50 (SCD1; [1]): > 45 µM; IC50 (SCD5; [2]): 1.18 µM
O=C(c1ccccc1F)N1CCC(c2noc(-c3ccnc(Cl)c3)n2)CC1 [Compound 1132] | > 45 µM | > 45 µM | 
CC(C)(C)OC(=O)N1CCC(F)(c2noc(-c3ccc4cnn(C5COC5)c4c3)n2)CC1 [Compound 883] | > 45 µM | 1 µM | 
COC(=O)N1CCC(c2noc(-c3ccc4cnn(C5CCS(=O)(=O)C5)c4c3)n2)CC1 (stereo not shown) [Compound 1077] | > 45 µM | 0.3 µM | 
C[C@@H]1CN(c2noc(-c3ccc4cnn(C5COC5)c4c3)n2)CCN1C(=O)OC(C)(C)C [Compound 959] | > 45 µM | > 45 µM | 
CC(C)n1ncc2ccc(-c3noc(C4(F)CCN(C(=O)OC5(C)CC5)CC4)n3)cc21 [Compound 625] |  |  | IC50 (SCD1; [1]): > 45 µM; IC50 (SCD5; [2]): 0.122 µM
CC(C)(C)OC(=O)N1CCN(c2noc(-c3ccc4cnn(C5CNC5)c4c3)n2)CC1 [Compound 932] | > 45 µM | 0.01 µM | 
O=C(OC1CC1)N1CCC(c2nc(-c3ccc4cnn(C5COC5)c4c3)no2)CC1 [Compound 618] |  |  | IC50 (SCD1; [1]): > 45 µM; IC50 (SCD5; [2]): 0.101 µM
CC(C)(C)OC(=O)N1CCN(c2noc(-c3ccc4cnn(C5COC5)c4c3)n2)CC(F)(F)C1 [Compound 1012] | 15 µM | 0.01 µM | 
Cc1nn(C)c2cc(-c3noc(C4CCN(C(=O)CC5CNC5)CC4)n3)ccc12 [Compound 680] |  |  | IC50 (SCD1; [1]): > 45 µM; IC50 (SCD5; [2]): > 45 µM

Compound | IC50 (SCD1; humanized yeast strain, 40 h) | IC50 (SCD5; humanized yeast strain, 40 h) | also measured
CC(C)C(=O)N1CCN(c2noc(-c3ccnc(Cl)c3)n2)CC1 [Compound 1119] | > 45 µM | > 45 µM | 
CC1(C(=O)N2CCN(c3nc(-c4ccc5cnn(C6COC6)c5c4)no3)CC2)CCOC1 (stereo not shown) [Compound 924] | > 45 µM | 4.09 µM | 
C[C@@H]1C[C@@H](c2noc(-c3ccc4cnn(C5COC5)c4c3)n2)CCN1C(=O)C1(F)CC1 [Compound 1065] | > 45 µM | 0.000386 µM | 
Cc1nn(C)c2cc(-c3nc(C4CCN(C(=O)C5CC5)CC4)no3)ccc12 [Compound 920] | 11.7 µM | 0.1 µM | 
CC(C)(C)OC(=O)N1CCC(c2noc(-c3ccc4cnn([C@H]5C[C@@H](O)C5)c4c3)n2)CC1 [Compound 933] | > 45 µM | 0.2 µM | 
CC(C)n1ncc2ccc(-c3noc(C4CCNCC4(F)F)n3)cc21 (stereo not shown) [Compound 508] |  |  | IC50 (SCD1; [3]): > 45 µM; IC50 (SCD5; [4]): > 45 µM
CC(C)(C)OC(=O)N1CC=C(c2ccc(-c3ccc4cnn(C5COC5)c4c3)nc2)CC1 [Compound 1010] | > 45 µM | 0.816 µM | 
Cc1nn(C)c2cc(-c3noc([C@H]4CC[C@H](O)CC4)n3)ccc12 [Compound 526] |  |  | IC50 (SCD1; [3]): > 45 µM; IC50 (SCD5; [4]): > 45 µM
CC(C)n1ncc2ccc(-c3nc(C4CCN(C(=O)c5ncccc5Cl)CC4)no3)cc21 [Compound 692] |  |  | IC50 (SCD1; [1]): > 45 µM; IC50 (SCD5; [2]): 0.492 µM
CC(C)n1ncc2ccc(-c3noc(C4CCN(C(=O)C5(C)CCCO5)CC4)n3)cc21 (stereo not shown) [Compound 703] |  |  | IC50 (SCD1; [1]): > 45 µM; IC50 (SCD5; [2]): 0.121 µM
CC(C)(C)OC(=O)N1C[C@@H]2[C@H](C1)[C@H]2C(=O)NCc1ccc(Cl)cc1 [Compound 773] | > 45 µM | 21.5 µM | 
CCC(=O)N1CCC(c2noc(-c3ccc(N4CCOCC4)cc3)n2)CC1 [Compound 1166] | > 45 µM | > 45 µM | 
CC(C)n1ncc2ccc(-c3noc(C4CCN(C(=O)CNC(=O)c5ccccc5)CC4(F)F)n3)cc21 (stereo not shown) [Compound 519] |  |  | IC50 (SCD1; [3]): > 45 µM; IC50 (SCD5; [4]): > 45 µM
CC(C)n1ncc2ccc(-c3noc(C4CCN(C(=O)C56CCC(F)(CC5)CC6)CC4)n3)cc21 [Compound 755] | > 45 µM | 5.41 µM | 
CC(C)(C(=O)N1CCC(c2noc(-c3ccnc(C4CCOC4)c3)n2)CC1)C(F)(F)F (stereo not shown) [Compound 1175] | > 45 µM | 0.21 µM | 
CC1(OC(=O)N2CCC(c3noc(-c4ccnc(C5CCOC5)c4)n3)CC2)CC1 (stereo not shown) [Compound 1016] | > 45 µM | 0.0614 µM | 
CC(C)n1ncc2ccc(-c3noc(N4CCN(C(=O)OC5(C)CC5)CC4)n3)cc21 [Compound 496] |  |  | IC50 (SCD1; [3]): > 45 µM; IC50 (SCD5; [4]): 0.445 µM
CC(C)(C)OC(=O)N1CCN(c2nc(-c3ccc4cnn(C5CCOC5)c4c3)no2)CC1 (stereo not shown) [Compound 784] | 0.95 µM | 0.01 µM | 
